This is an account of results in ChEMBL document CHEMBL1133493, “N-acylated alpha-(3-pyridylmethyl)-beta-aminotetralin antagoinists of the human neuropeptide Y Y5 receptor” (Bioorg Med Chem Lett, 2000).

One test addresses T1, Neuropeptide Y receptor type 5 (Homo sapiens) (UniProt Q15761).
T1 sequence (whole entry): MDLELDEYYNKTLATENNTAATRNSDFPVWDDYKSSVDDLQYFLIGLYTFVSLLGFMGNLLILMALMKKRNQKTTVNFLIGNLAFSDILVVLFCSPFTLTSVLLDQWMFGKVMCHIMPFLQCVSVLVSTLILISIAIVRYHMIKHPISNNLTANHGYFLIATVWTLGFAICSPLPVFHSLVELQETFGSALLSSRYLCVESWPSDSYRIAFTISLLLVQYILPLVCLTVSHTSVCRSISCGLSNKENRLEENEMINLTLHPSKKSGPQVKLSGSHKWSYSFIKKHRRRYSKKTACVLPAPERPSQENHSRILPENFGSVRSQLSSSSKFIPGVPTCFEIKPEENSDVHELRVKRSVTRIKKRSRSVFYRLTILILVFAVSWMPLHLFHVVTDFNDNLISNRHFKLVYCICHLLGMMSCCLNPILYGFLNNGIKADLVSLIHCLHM
Nature of the test: Antagonist potency by inhibition of peptide YY (PYY)-induced incorporation of [35S]GTP-gamma-S into membranes prepared from NPY5 receptor expressing cells, in the presence of 300 nM PYY. Format: functional. For orientation: Binding of GTPγS marks nucleotide exchange on a G protein.
As usually defined, the Kb is the affinity of an antagonist, worked out from how it opposes an agonist. On to `O=C(CN1CCC(n2c(O)nc3ccccc32)CC1)NC1CCc2cc(F)ccc2C1Cc1cccnc1` (stereo unspecified), for which the antagonist dissociation constant (Kb) stood at 21 nM.
Still for that read-out and setting: for `O=C(CN1CCC(n2c(O)nc3ccccc32)CC1)NC1CCc2cc(O)ccc2C1Cc1cccnc1` (stereo unspecified) the value was 21 nM.

Another test addresses T2, Neuropeptide Y receptor type 5 (Homo sapiens, UniProt Q15761).
T2 sequence (Q15761 whole entry): T1 sequence (whole entry)
The test is described as follows: Inhibition of binding of radioligand [125I]PYY to the human Neuropeptide Y receptor type 5, using a stably transfected HEK293 cell line. The class given is cell-based.
By IC50 is commonly meant the midpoint of a concentration-inhibition curve. High values mean lower potency, low ones higher potency. In the case of `CC(C)(C)OC(=O)NC1CCN(CC(=O)NC2CCc3cc(F)ccc3C2Cc2cccnc2)CC1` (stereo unspecified), the IC50 was found to be 37 nM.
On the same count and under the same terms, the figure for `CC(C)(C)OC(=O)N[C@@H]1CCN(CC(=O)NC2CCc3cc(F)ccc3C2Cc2cccnc2)C1` (stereo partly specified) is 30 nM; for `O=C(CN1CCC(NC(=O)c2ccccc2)CC1)NC1CCc2cc(F)ccc2C1Cc1cccnc1` (stereo unspecified) it is 28 nM; for `O=C(CN1CCC(n2c(O)nc3ccccc32)CC1)NC1CCc2cc(F)ccc2C1Cc1cccnc1` (stereo unspecified) it is 25 nM.
On the same count and under the same terms, the figure for `CC(C)(C)OC(=O)NC[C@H]1CC[C@H](C(=O)NC2CCc3cc(F)ccc3C2Cc2cccnc2)CC1` (stereo partly specified) is 16 nM.
`O=C(CN1CCC(NC(=O)Oc2ccccc2)CC1)NC1CCc2cc(F)ccc2C1Cc1cccnc1` (stereo unspecified) registered an IC50 of 52 nM.
The molecule `O=C(Cc1ccccc1)NC[C@H]1CC[C@H](C(=O)NC2CCc3cc(F)ccc3C2Cc2cccnc2)CC1` (stereo partly specified) showed an IC50 of 114 nM.
For the molecule `O=C(NC[C@H]1CC[C@H](C(=O)NC2CCc3cc(F)ccc3C2Cc2cccnc2)CC1)Nc1ccccc1` (stereo partly specified), the IC50 is 170 nM.
In the case of `CC(C)(C)NC(=O)NC1CCN(CC(=O)NC2CCc3cc(F)ccc3C2Cc2cccnc2)CC1` (stereo unspecified), the IC50 was 140 nM.
Take `O=C(CN1CCC(n2c(O)nc3ccccc32)CC1)NC1CCc2cc(O)ccc2C1Cc1cccnc1` (stereo unspecified): the concentration for half-maximal inhibition (IC50) stood at 6 nM.
On the same count and under the same terms, the figure for `O=C(CN1CC[C@H](NC(=O)c2ccccc2)C1)NC1CCc2cc(F)ccc2C1Cc1cccnc1` (stereo partly specified) is 26 nM; for `O=C(CN1CCC(NC(=O)Nc2ccccc2)CC1)NC1CCc2cc(F)ccc2C1Cc1cccnc1` (stereo unspecified) it is 236 nM.
Same read-out and setting: the figure for `CC(C)(C)OC(=O)NC1CCN(CC(=O)NC2CCc3cc(F)ccc3C2Cc2cccnc2)C1` (stereo unspecified) is 45 nM.
`O=C(Cc1ccccc1)NC1CCN(CC(=O)NC2CCc3cc(F)ccc3C2Cc2cccnc2)CC1` (stereo unspecified) had an IC50 of 36 nM.
With `O=C(CN1CCC(n2c(=O)[nH]c3ccccc32)CC1)NC1CCc2ccccc2C1Cc1cccnc1` (stereo unspecified), the IC50 was determined as 22 nM. This IC50 is about 1.6-fold lower than that of the molecule before.
In turn, `O=C(NC[C@H]1CC[C@H](C(=O)NC2CCc3cc(F)ccc3C2Cc2cccnc2)CC1)c1ccccc1` (stereo partly specified) showed a half-inhibitory concentration (IC50) of 39 nM.
The same measure, in the same setting: the figure for `COc1ccc2c(c1)CCC(NC(=O)CN1CCC(n3c(=O)[nH]c4ccccc43)CC1)C2Cc1cccnc1` (stereo unspecified) is 75 nM; for `O=C(NC[C@H]1CC[C@H](C(=O)NC2CCc3cc(F)ccc3C2Cc2cccnc2)CC1)Oc1ccccc1` (stereo partly specified) it is 31 nM; for `CC(C)(C)OC(=O)N[C@H]1CCN(CC(=O)NC2CCc3cc(F)ccc3C2Cc2cccnc2)C1` (stereo partly specified) it is 17 nM.
